# Assay results from patent US20110027354A1, “ANTI-PA[…]” (priority 2008, published 2011).
# Experiments:
# mice = experiment: Conditioned place preference (CPP); assay type: in vivo; conditions: selegiline or MPPE 2.5 or 5.0 mg/kg i.p., MA 0.5 or 1.0 mg/kg i.p.; vs. saline
# Experimental: For conditioned place preference (CPP) test, mice received an i.p. injection of saline just before entering the […] compartment. MA (0.5 or 1.0 mg/kg, i.p.), selegiline (2.5 or 5.0 mg/kg, i.p.), and MPPE (2.5 or 5.0 mg/kg, i.p.) dissolved in saline was administered immediately before the mice were placed in the white compartment. On day 1, the mice were pre-exposed to the test apparatus for 15 minutes. The guillotine style doors were raised and mice were allowed to move freely between the two compartments. On day 2, the time each mouse spent in each compartment was recorded for 15 minutes. On days 3, 5, 7, 9, 11, and 13, the mice were injected with each drug before being confined to the white compartment, the non-preferred side, for 40 minutes. On day 14, the guillotine doors were raised. The mice were initially placed in the tunnel and the time spent by the mice in the two compartments was recorded for 15 minutes. The scores were calculated from the differences in the time spent in the white compartment in the testing and pre-testing phases. Data were analyzed between 09:00 and 17:00 hours.
# [1] = test system: tyrosine hydroxylase (TH); experiment: TH activity; assay type: in vivo, mice; conditions: for TH activity: drug alone (no MPTP); for effect on MPTP-induced decrease of TH activity: one day after final MPTP, vs. MPTP alone
# [2] = test system: tyrosine hydroxylase (TH); experiment: TH-immunoreactivity by immunocytochemistry; assay type: in vivo, mice; conditions: for effect on MPTP-induced decrease of TH-immunoreactivity (TH-IR): immunocytochemistry (ICC), vs. MPTP alone; for TH-immunoreactivity: drug alone (no MPTP)
# Experimental: Animals were sacrified at 1 day after MPTP-treatment. They were anesthetized with 60% urethane and perfused transcardially with 200 ml of 50 mM phosphate buffered saline (PBS), followed by 50 ml of paraformaldehyde in PBS. The brain were fixed at 4° C. for 24 h in the same fixative and then cryoprotected in 30% sucrose. The brains were sectioned on a horizontal sliding microstome into 35 μm transverse free-floating sections.
# The immunocytochemistry was performed as described previously (Kim et al., 2000a; Kim et al., 2000b). Briefly, prior to incubation with the primary antibodies, sections were preincubated with 0.3% hydrogen peroxide in PBS for 30 min (to block endogenous peroxidase activity), then in PBS containing 0.4% Triton X-100 for 20 min and 1% no: mal serum for 20 min. After a 48 h incubation with the primary antibody at 4° C., sections were incubated with the secondary biotinylated antisera (1:1000 dilution; Vector, Brulingame, Calif.) for 1 h, washed, and immersed in avidin-biotin-peroxidase complex (ABC Elite kit, Vector) for 1 hr. Sections were always washed three times with PBS between each incubation step. 3,3′-Diaminobenzidine (DAB) was used as the chromogen. The quantitative analyses were performed using a computer-based image analysis system (Optimas version 6.2; Neurolucida Program) (Kim et al., 1999).
# protein carbonyl = experiment: Determination of protein carbonyl (Oxyblot assay); assay type: in vivo, mice; conditions: striatum; for protein carbonyl expression: drug alone (no MPTP); for effect on MPTP-induced increase in protein carbonyl expression: one day after final MPTP, vs. MPTP alone
# Experimental: Total protein ([…]) was used to perform the Oxyblot assay. The amount of oxidized proteins was measured using the Oxyblot kit (Chemicon International, CA), following the manufacturer's instructions. Briefly, the protein carbonyl content was measured by first forming labeled protein hydrazone derivatives using 2,4-dinitrophenylhydrazide (DNP). The INP-derivatized protein samples were separated by polyacrylamide gel electrophoresis followed by Western blotting. Blots were then incubated with primary antibody specific to the DNP moiety, followed by incubation with a horseradish peroxidase-antibody conjugate directed against the primary antibody. The blots were then treated with chemiluminescent reagents (Amersham) (Gemma et al., 2004).
# α-synuclein = experiment: Oligomergic α-synuclein expression (western blot); assay type: in vivo, mice; conditions: striatum; for effect on MPTP-induced increase in oligomergic α-synuclein: vs. MPTP alone
# Experimental: (§1) The western blot assays were performed as described previously (thong et al., 1997). Tissues were homogenized in lysis buffer, containing 200 mM Tris HCl (pH 6.8), 1% SDS, 5 mM ethylene glycol tetraacetic acid, 5 mM ethylenediaminetetraacetic acid, 10% glycerol, 1× phosphatase inhibitor cocktail I, 1× protease inhibitor cocktail. The supernatant fraction was subsequently centrifuged at 30,000×g for 30 min. The resulting pellet was resuspended in the sample buffer. Proteins (20-50 ug/lane) were separated by 6%, 8%, 10% or 15% sodium dodecyl sulfate-polyacrylamide gel electrophoresis and transferred onto the nitrocellulose membranes. Following transfer, the nitrocellulose membranes were preincubated with 5% non-fat milk and incubated overnight at 4° C. with anti-β-actin (Sigma, 1:50000), anti-TH (Chemicon, 1:5000), anti-TH phosphoser19 (Chemicon, 1:5000), anti-TH phosphoser31 (Chemicon, 1:500), anti-TH phosphoser40 (Chemicon, 1:500), anti-F 4/80 (Serotec, 1:500), anti-BDNF (Chemicon, 1:500), anti-GDNF (Santa-Cruz, 1:250), anti-Akt (Cell signaling, 1:1000), anti-phospho Akt ser 473 (Cell signaling, 1:1000), anti-PI3K (Cell signaling, 1:1000), anti-phospho PI3K (Cell signaling, 1:500) and anti-α-synuclein (BD Transduction, 1:500) antibody. After incubation with primary antibody, membranes were incubated with the secondary anti-rabbit IgG, Horseradish Peroxidase (1:1000 dilution, Amersham) or anti-mouse IgG, Horseradish Peroxidase (1:1000, Sigma), or anti-goat IgG, Horseradish Peroxidase (1:1000, Sigma) for 2 h, washed. Subsequently visualized with the Amersham ECL system (Amersham, Arlington Heights, Ill., USA).
# [3] = test system: glial cell line-derived neurotrophic factor (GDNF); experiment: GDNF expression (western blot); assay type: in vivo, mice; conditions: striatum; for effect on MPTP-induced reduction of GDNF expression: pre-treatment, vs. MPTP alone
# Experimental: as §1
# phospho-Akt = experiment: Phosphorylation of Akt at Ser473 (western blot); assay type: in vivo, mice; conditions: striatum; for effect on MPTP-induced decrease in phospho-Akt: vs. MPTP alone
# Experimental: as §1
# phospho-PI3K = experiment: Phosphorylation of PI3K (western blot); assay type: in vivo, mice; conditions: striatum; for effect on MPTP-induced decrease in phospho-PI3K: vs. MPTP alone
# Experimental: as §1
Structure (SMILES),conditioned place preference (CPP) (mice),TH activity [1],"attenuation of TH activity decrease compared with selegiline ([1]; striatum and SN, vs. selegiline+MPTP)",effect on MPTP-induced decrease of TH activity ([1]; striatum),effect on MPTP-induced decrease of TH activity ([1]; substantia nigra (SN)),effect on MPTP-induced decrease of TH-immunoreactivity (TH-IR) ([2]; SN),TH-immunoreactivity [2],"attenuation of TH-IR decrease compared with selegiline ([2]; striatum and SN, ICC, vs. selegiline+MPTP)",effect on MPTP-induced decrease of TH-immunoreactivity (TH-IR) ([2]; striatum),protein carbonyl expression (protein carbonyl),effect on MPTP-induced increase in protein carbonyl expression (protein carbonyl),attenuation of protein carbonyl increase compared with selegiline (protein carbonyl; vs. selegiline+MPTP),effect on MPTP-induced increase in oligomergic α-synuclein (α-synuclein),protection against α-synuclein increase compared with selegiline (α-synuclein; vs. selegiline+MPTP),effect on MPTP-induced reduction of GDNF expression [3],enhancement of GDNF expression compared with selegiline ([3]; vs. selegiline+MPTP),effect on MPTP-induced decrease in phospho-Akt (phospho-Akt),attenuation of phospho-Akt decrease compared with selegiline (phospho-Akt; vs. selegiline+MPTP),effect on MPTP-induced decrease in phospho-PI3K (phospho-PI3K),attenuation of phospho-PI3K decrease compared with selegiline (phospho-PI3K; vs. selegiline+MPTP)
"C#CCN(C)CCc1ccccc1 [MPPE, N-methyl-N-propynyl-2-phenylethylamine]",did not significantly change,did not show any significant effect,more effective,attenuated,attenuated,significantly attenuated,did not show any significant effect,more evident,attenuated,a little induction,attenuated,appeared to be more underlined in the MPPE-pretreated mice,significantly attenuated,more protective effect,significantly attenuated,more effective,significantly attenuated,more pronounced in MPPE-treated mice,significantly attenuated,more pronounced in MPPE-treated mice
"C#CCN(C)[C@H](C)Cc1ccccc1 [selegiline, reference compound]",significantly increased compared with saline,did not show any significant effect,–,attenuated,attenuated,significantly attenuated,did not show any significant effect,–,attenuated,a little induction,attenuated,–,significantly attenuated,–,significantly attenuated,–,significantly attenuated,–,significantly attenuated,–
